Results as given in US11377442B2, “Small molecule agonists and antagonists of NR2F6 activity” (ZANDER THERAPEUTICS, INC., priority 2016, dated 2022).

Key:
Type in all cases: cell-based
[1] = target: T1, ERα (Homo sapiens, UniProt P03372); experiment: Counterscreening, Firefly signal with ERα transient transfection (Firefly_ERa); conditions: 10 uM
T1 construct: expressed in transfected cells
T1 sequence (P03372 1-595): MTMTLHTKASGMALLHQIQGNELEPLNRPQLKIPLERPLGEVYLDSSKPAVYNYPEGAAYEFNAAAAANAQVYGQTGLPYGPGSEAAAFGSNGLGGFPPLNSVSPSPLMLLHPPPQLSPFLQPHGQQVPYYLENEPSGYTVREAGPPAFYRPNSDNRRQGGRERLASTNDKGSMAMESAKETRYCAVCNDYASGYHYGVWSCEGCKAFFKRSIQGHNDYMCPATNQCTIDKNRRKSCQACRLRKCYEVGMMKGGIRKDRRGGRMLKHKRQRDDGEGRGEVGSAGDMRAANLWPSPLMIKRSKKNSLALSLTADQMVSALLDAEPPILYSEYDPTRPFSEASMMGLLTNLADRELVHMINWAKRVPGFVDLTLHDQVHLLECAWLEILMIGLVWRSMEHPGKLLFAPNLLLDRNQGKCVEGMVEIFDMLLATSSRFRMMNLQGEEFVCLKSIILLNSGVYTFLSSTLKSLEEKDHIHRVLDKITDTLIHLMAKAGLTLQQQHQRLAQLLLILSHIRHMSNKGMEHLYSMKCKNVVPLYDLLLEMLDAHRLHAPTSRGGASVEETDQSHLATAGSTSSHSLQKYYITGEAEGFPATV
Experimental: The methodology for screening candidate compounds as NR2F6 agonists was as follows: For primary screening, hit criteria was ACT %>DMSO control+5*SD (DSO control) at 10 μM, or any compound with S/B>2. For rescreening, hit criteria was ACT %>DMSO control+3*SD (DSO control) in each replicate at 10 μM. For counterscreening, hit criteria was mean ACT<DMSO control+3*SD (DMSO control) with ERα transient transfection in duplicate at 10 μM.

[2] = test system: Renilla_ERa; experiment: Renilla signal in ERα counterscreen (Renilla_ERa); conditions: read-out: Renilla ERalpha transient, cmpd/DMSO (mean)
[3] = test system: Renilla; experiment: Renilla signal in NR2F6 agonist screening, cmpd/DMSO; conditions: Renilla, clone F4, read-out: Renilla F4, cmpd/DMSO (mean)
[4] = target: T1, ERα; experiment: Counterscreening, Firefly signal with ERα transient transfection (Firefly_ERa)
[5] = target: T2, NR2F6 (Homo sapiens, UniProt P10588); experiment: NR2F6 agonist screening, Firefly signal cmpd/DMSO; conditions: clone F4
T2 construct: expressed in transfected cells; also transient transfection
T2 sequence (P10588 1-404): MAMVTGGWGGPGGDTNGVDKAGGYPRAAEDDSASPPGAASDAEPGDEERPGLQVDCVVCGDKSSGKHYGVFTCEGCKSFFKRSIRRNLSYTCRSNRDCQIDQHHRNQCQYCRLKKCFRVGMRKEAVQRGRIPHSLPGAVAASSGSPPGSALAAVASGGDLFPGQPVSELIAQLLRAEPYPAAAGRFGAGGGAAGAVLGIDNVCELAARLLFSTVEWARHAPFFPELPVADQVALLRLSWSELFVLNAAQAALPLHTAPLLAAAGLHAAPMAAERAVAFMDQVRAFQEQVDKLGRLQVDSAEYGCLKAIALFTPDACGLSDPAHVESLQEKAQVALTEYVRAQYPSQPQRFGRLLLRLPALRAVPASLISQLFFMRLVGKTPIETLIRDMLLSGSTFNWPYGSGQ

SMILES	Firefly ERalpha transient, cmpd/DMSO (mean) [1]	fold induction at 2 µM [2]	fold induction at 10 µM [2]	fold induction at 40 µM [2]	fold induction at 2 µM [3]	fold induction at 10 µM [3]	fold induction at 40 µM [3]	Firefly ERalpha transient, cmpd/DMSO (mean) ([4]; 2 uM)	Firefly ERalpha transient, cmpd/DMSO (mean) ([4]; 40 uM)	Firefly F4, cmpd/DMSO (mean) ([5]; 2 uM)	Firefly F4, cmpd/DMSO (mean) ([5]; 10 uM)	Firefly F4, cmpd/DMSO (mean) ([5]; 40 uM)
COc1ccc2nc(C(F)(F)F)c(C#N)c(NCCc3ccc(Cl)cc3)c2c1 [Compound Z39]	0.5	1.1	0.6	0.6	0.7	0.5	0.5	1.2	0.8	0.8	1.0	0.7
COc1ccc2nc(C(F)(F)F)c(C#N)c(NCCOc3ccc(Cl)cc3)c2c1 [Compound Z40]	0.3	1	0.7	0.6	0.7	0.6	0.5	1.0	1.0	0.8	0.7	0.8
COc1ccc2nc(C(F)(F)F)c(C#N)c(N3CCN(C)CC3)c2c1 [Compound Z41]	1.4	1	1.1	0.8	0.7	0.6	0.6	0.9	1.6	1.0	1.1	1.7
Cc1ccc(CCCNc2c(C#N)c(C(F)(F)F)nc3ccc(Oc4ccccc4)cc23)cc1 [Compound Z42]	1.8	1.1	0.9	0.7	1.2	0.9	0.7	1.5	1.1	0.9	0.9	0.6
N#Cc1c(C(F)(F)F)nc2ccc(Cl)cc2c1N1CCOCC1 [Compound Z43]	0.9	1	1	0.9	1	0.9	0.7	1.4	1.6	1.3	0.8	0.8
COc1ccc(-c2cc3n(n2)C(N)=C(C#N)C(c2c[nH]c4ccccc24)(C(F)(F)F)N3)cc1OC (stereo not drawn) [Compound Z44]	1.2	1.1	0.9	0.5	1.7	1.5	0.3	1.2	1.0	0.8	0.8	0.4
COc1ccc(-c2cc3n(n2)C(N)=C(C#N)C(c2ccc(N4CCOCC4)cc2)(C(F)(F)F)N3)cc1OC (stereo not drawn) [Compound Z45]	0.6	1.1	0.8	1	1.2	1.2	1.1	0.8	0.7	0.8	1.2	0.5
COC(=O)CNc1c(C#N)c(C(F)(F)F)nc2ccc(OC)cc12 [Compound Z46]	0.8	0.9	1	1	0.9	0.8	0.6	0.9	0.6	0.6	0.8	0.6
COC(=O)c1[nH]c2c(c(C(F)(F)F)nc3ccc(OC)cc32)c1N [Compound Z47]	1.0	1.2	1.4	1.2	1.1	1.2	1.7	0.9	1.7	0.9	1.3	2.0
N#Cc1c(C(F)(F)F)nc2ccc(Cl)cc2c1NC1CC1 [Compound Z48]	0.3	1.1	0.8	0.6	0.8	0.6	0.6	1.5	0.5	0.9	0.5	0.7
N#CC1=C(N)n2nc(-c3ccccc3)cc2NC1(c1ccc(N2CCOCC2)cc1)C(F)(F)F (stereo not drawn) [Compound Z49]	0.4	1	0.7	0.8	1	0.7	0.8	1.0	0.4	0.8	0.7	0.6
COc1ccc(-c2cc3n(n2)C(N)=C(C#N)C(c2cccn2C)(C(F)(F)F)N3)cc1OC (stereo not drawn) [Compound Z50]	0.7	1	0.8	0.6	1.6	2	0.8	1.3	0.7	0.8	0.9	0.6
N#Cc1c(C(F)(F)F)nc2ccc(Oc3ccccc3)cc2c1N1CCNCC1 [Compound Z51]	0.8	1.1	0.9	0.3	0.8	0.7	0.3	1.3	0.4	0.6	0.6	0.7
N#Cc1c(C(F)(F)F)nc2ccc(Oc3ccccc3)cc2c1NCCc1ccc(Cl)cc1 [Compound Z52]	0.4	1.1	0.8	0.7	0.8	0.5	0.6	0.7	0.7	0.6	0.7	0.7
